Measured values as given in ChEMBL document CHEMBL1201862, “PubChem BioAssay data set” (2004).
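Where inhibition never reached the appropriate level, the endpoint shown equals the highest concentration tested. Otherwise, values were interpolated linearly from a five-concentration, 48-hour dose response in 96-well plates. The concentration for 50% growth inhibition is given as GI50.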 The source made the active and inactive calls. Rule as the data show it: active = GI50 up to about 1.1 µM and inactive = higher. Starred links: 1 amine or outer side, 2 acyl side, 3 side chain; linkers in the order of their positions; H or OH if unused. Positions of bridges follow the written chain, without caps; N, C: chain ends. Non-standard residues stand in square brackets, D forms with d. Residues, ends and D or L forms follow the SMILES beside them. ξ: configuration not given here. *: point of attachment. γ4hArg(2R,3R-(OH)2) = N=C(N)NCCC[C@H](N[*:1])[C@@H](O)[C@@H](O)C(=O)[*:2]; Gln(3S,4R-Me2) = C[C@H]([C@H](N)C(=O)O)[C@@H](C)C(N)=O; X50 = CC(C)C[C@H](C)[C@@H](O)[C@@H](C)C(=O)*; X51 = COC(c1ccc(O)cc1)C(N[*:1])C(=O)[*:2]; NMeQ = CN[C@@H](CCC(N)=O)C(=O)O; Thr(3ξ) = CC(O)[C@H](N)C(=O)O; NMeA = CN[C@@H](C)C(=O)O

How the values were obtained:
Assay in all cases: inhibition of tumour cell growth, NCI panel, 48 h
[1] = test system: MDA-N
[2] = test system: SF-295
[3] = test system: MOLT-4
[4] = test system: NCI-H522
[5] = test system: UACC-62
[6] = test system: RPMI-8226
[7] = test system: SK-MEL-28
[8] = test system: HCC 2998
[9] = test system: SF-268
[10] = test system: SW-620
[11] = test system: NCI-H226
[12] = test system: T47D
[13] = test system: COLO 205
[14] = test system: SR
[15] = test system: DU-145
[16] = test system: NCI/ADR-RES
[17] = test system: SNB-19
[18] = test system: UO-31
[19] = test system: SNB-75
[20] = test system: HCT-116

Measured: GI50

COC(c1ccc(O)cc1)C1NC(=O)[C@H](CCC(N)=O)N(C)C(=O)[C@H](CC(C)C)NC(=O)[C@@H](CCCN=C(N)N)NC(=O)[C@H](C(C)O)NC(=O)[C@@H](NC(=O)[C@@H](NC(=O)[C@H](O)[C@H](O)[C@H](CCCN=C(N)N)NC(=O)[C@H](C)NC(=O)[C@H](C)[C@H](O)[C@@H](C)CC(C)C)[C@@H](C)[C@@H](C)C(N)=O)[C@@H](C)OC(=O)[C@H](C)N(C)C1=O (stereo partly drawn) (X50-A[γ4hArg(2R,3R-(OH)2)][Gln(3S,4R-Me2)]T[Thr(3ξ)][dR]L[NMeQ][X51][NMeA]; ester 4-C)
active: [1] 135 nM | [2] 92.5 nM | [3] 139 nM | [4] 59.8 nM | [5] 126 nM | [6] 106 nM | [7] 223 nM | [8] 87.7 nM | [9] 52.5 nM | [10] 137 nM | [11] 212 nM | [12] 138 nM | [13] 88.1 nM | [14] 143 nM | [15] 76.4 nM | [16] 222 nM | [17] 92.9 nM | [18] 249 nM | [19] 90.2 nM | [20] 281 nM
